Entries after “also recorded” stand apart in the source; their conditions may differ.
Experiments:
[1] = tested on: AceCS2; assay: Acetyl-CoA synthetase activity of purified AceCS2; format: biochemical, human; settings: hyperacetylated AceCS2 from nicotinamide-treated E. coli vs untreated
Protocol: E. coli DH5α bacteria (Invitrogen) transformed, e.g., with either pTrcHis2C-SIRT3(102-399), pTrcHis2C-SIRT3-H248Y(102-399), pTrcHis2C-SIRT5(12-310), pTrcHis2C-SIRT5(39-310) or pTrcHis2C-AceCS2(38-689) were grown to an A600 nm=0.4, and induced with 0.5 mM isopropyl-β-D-thiogalactopyranoside (IPTG) at 25° C. for 16 h. 6×His-tagged proteins were purified under native conditions at 4° C. using Ni-NTA agarose (Qiagen, Valencia, Calif.). […]
The activity of purified AceCS2 was measured as described (Jones & Lipmann, 1955, in Methods in Enzymology (Academic Press, Vol. 1, pp. 585-591; Barak et al., 2004, J Mol Biol 342:383-401). Each reaction (0.5 mL) contained 100 mM hydroxylamine (pre-neutralized with KOH), 50 mM Tris-HCl (pH 8.0), 20 mM potassium acetate, 10 mM MgCl2, 10 mM ATP, 2 mM DTT and 1 mM CoA. All chemicals (Sigma) were of the highest purity available. Reactions were pre-incubated at 35° C. for 5 min before the addition of purified AceCS2 (6 μg). After 30 min of incubation, 0.5 mL stop solution (10% (w/v) FeCl3, 3.3% (w/v) trichloroacetic acid in 2 N HCl) were added and reactions were incubated on ice for 2 min. The samples were centrifuged for 2 min at 16,200×g to remove turbidity and the generated color was measured at 540 nm. […]

[2] = target: T1, bacterial sirtuins (Escherichia coli, UniProt P75960); assay: Expression of recombinant human AceCS2 in nicotinamide-treated E. coli, acetyl-lysine immunoblot; format: cell-based
T1 construct: endogenous in cells; host or cells: E. coli DH5alpha (Invitrogen)
Protocol: E. coli DH5α bacteria (Invitrogen) transformed, e.g., with either pTrcHis2C-SIRT3(102-399), pTrcHis2C-SIRT3-H248Y(102-399), pTrcHis2C-SIRT5(12-310), pTrcHis2C-SIRT5(39-310) or pTrcHis2C-AceCS2(38-689) were grown to an A600 nm=0.4, and induced with 0.5 mM isopropyl-β-D-thiogalactopyranoside (IPTG) at 25° C. for 16 h. 6×His-tagged proteins were purified under native conditions at 4° C. using Ni-NTA agarose (Qiagen, Valencia, Calif.). Purified proteins were dialyzed (e.g., against sirtuin storage buffer […], 4 mM MgCl2, 50 mM NaCl, 0.5 mM DTT, 5% glycerol (v/v) or AceCS2 storage buffer [50 mM Tris-HCl (pH 8.0), 4 mM MgCl2, 10% glycerol (v/v)], adjusted to 0.5 g/L and stored frozen at −80° C. To induce acetylation of recombinant AceCS2, nicotinamide (50 mM) was added during protein expression (16 h, 25° C.).
Immunoblots were developed with enhanced chemiluminescence (Amersham Pharmacia Biosciences) or West SuperSignal reagent (Pierce). Membranes were either nitrocellulose or polyvinylidene fluoride (PVDF) (Immun-Blot; Bio-Rad Laboratories).

T1 sequence (P75960 whole entry): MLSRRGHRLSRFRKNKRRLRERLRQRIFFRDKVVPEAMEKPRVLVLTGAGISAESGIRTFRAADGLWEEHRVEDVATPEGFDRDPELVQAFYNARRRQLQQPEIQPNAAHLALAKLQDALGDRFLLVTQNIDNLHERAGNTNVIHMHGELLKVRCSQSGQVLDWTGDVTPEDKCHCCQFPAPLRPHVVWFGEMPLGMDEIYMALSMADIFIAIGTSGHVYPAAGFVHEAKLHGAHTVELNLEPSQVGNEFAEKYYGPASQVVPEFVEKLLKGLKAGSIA

NC(=O)c1cccnc1 [nicotinamide]
specific activity of AceCS2 purified from bacteria treated or not with nicotinamide [1]: significantly lower specific activity
acetylation of mutant AceCS2 protein carrying an arginine residue in position 642 ([2]; E. coli treated with nicotinamide during expression, AceCS2-K642R): did not induce acetylation
acetylation of recombinant human AceCS2 (Lys642) ([2]; wild-type E. coli treated with nicotinamide (50 mM) during protein expression, 16 h, 25° C., AceCS2 wild type): hyperacetylation of recombinant human AceCS2; also recorded: significantly increased its levels of acetylation
